Measurements reported in patent publication US10035780B2, “Quinazoline scaffold based compounds, pharmaceutical compositions and methods of use thereof” (TECHNION RESEARCH & DEVELOPMENT FOUNDATION LTD., priority 2014, dated 2018).
“Also recorded” adds a separate entry of the source.

Experiments:
TSPO = TSPO (Homo sapiens (Human), UniProt P30536); type: binding; conditions: displacement of [3H]PK 11195 from TSPO
Protocol: Briefly, the assay utilizes radioactive standard ligand [^3H] PK 11195 (1-(2-chlorophenyl)-N-methyl-N-(1-methyl-propyl)-3 isoquinolinecarboxamide), and measures the ability of the compounds of the invention to displace standard ligand in binding to TSPO. Total radioactive binding was determined by measuring the radioactivity of the radioactive ligand-receptor complex, obtained in the reaction of radioactive standard with the TSPO. Radioactive standard and the examined compound were added to the TSPO and after some incubation time the radioactivity of the resulting ligand-receptor complexes was measured with the help of a […]. This radioactivity indicates the binding of the radioactive standard to TSPO. […] This can be expressed as the half maximal inhibitory concentration (IC50), which is a measure of the effectiveness of a compound in inhibiting biological or biochemical function, in this case inhibiting binding of standard radioactive ligand binding to the TSPO. A derivative of the IC50 is the Ki, which is the calculated binding affinity of the novel compound to the TSPO.
Binding to TSPO was evaluated using a [^3H]PK 11195 radio-assay, as described above.

SH SY 6Y cells = test: Protection of SH SY 6Y neuronal cells against lethal effects of glutamate; type: cell-based, human
Protocol: (§1) Cell cultures of various human glial type cell lines (T98G, U87MG, A172, U118MG), as well as human neuronal type cell lines SH-SY 5Y and Be(2)-C were used to test the new compounds. In addition, the rat glioma cell line C6 was used. PC12 cells originating from rats were used as another cell line displaying neuronal characteristics. The applicants also have produced, by genetic manipulation, a modified rat C6 glial cell strain and a modified human U118MG glial type cell strain, both under-expressing the TSPO, which allows to study TSPO specific effects, including of the compounds of the invention, which can be done according to methods described previously (Weisinger et al. Biochemistry. 2004; 43:12315-21; Levin et al. 2005; Zeno et al., 2009).
The protective capabilities of the compounds of the invention and involvement of the TSPO were tested in cell culture, using cell lines of glial and neuronal type, cultured and testing according to standard methods (Kugler et al. 2008; Zeno et al. 2009; Dadon-Nachum et al. Stem Cell Rev. 2011; 7:664-71). […]

U118MG cells = test: Protection against cell death induced by glutamate in U118MG cell culture; type: cell-based, human; conditions: for Protection against glutamate-induced cell death: cell culture, grade in words; for lethal effects of compound at high concentration: 100 μM compound alone; for protection against cell death induced by glutamate: U118MG cells, 35 mM glutamate, compound 1-100 μM
Protocol: as §1
The protective capabilities of the compounds of the invention and involvement of the TSPO were tested in cell culture, using cell lines of glial and neuronal type, cultured and testing according to standard methods (Kugler et al. 2008; Zeno et al. 2009; Dadon-Nachum et al. Stem Cell Rev. 2011; 7:664-71). Furthermore, primary cell cultures are also used (Banker, G. et al. Culturing Nerve Cells, 2nd Edition, The MIT Press (1998). Treatments included: (1) exposure to glutamate (35 mM), Abeta(1-42), NH4Cl, CoCl2, and nitric oxide (NO) donors, in order to mimic particular aspects of neurodegeneration; (2) treatment with the novel compounds and with traditional TSPO ligands as comparative treatment; and (3) TSPO knockdown by genetic manipulation.
Techniques and parameters assayed are summarized here: Total protein levels (Bradford. Anal Biochem. 1976; 72:248-54); TSPO ligand binding assays (Kugler et al. 2008; Levin et al. 2005; Danovich et al. Eur Neuropsychopharmacol. 2008; 18:24-33) cell death, including apoptosis and necrosis and related molecular biological processes (Soustiel et al. Neuropathol Appl Neurobiol. 2008; 34:412-23; Soustiel et al. Exp Neurol. 2008; 214:201-8; Zeno et al. 2009); mitochondrial transmembrane potential collapse (Chelli et al. Biochem Pharmacol. 2004; 68:125-34; Kugler et al. 2008; Zeno et al., 2009; Shargorodsky et al. Apoptosis. 2012; 17:647-65), reactive oxygen species (ROS) generation as a measure of oxidative stress (Veenman et al. 2008; Zeno et al. 2009); TSPO knockdown (Levin et al. 2005; Zeno et al. 2009); expression levels of mitochondrial TSPO and associated proteins (Veenman et al. 2002; Levin et al. 2005; Veenman et al. 2008); gene expression with RT-PCR and microarray analysis (Bode et al. 2012; Veenman et al. 2012). Parameters of inflammation, immune response, migration, and the cell cycle are also tested. All these approaches can also be applied for quality control of the compounds.
The compounds of the invention protect against cell death induced by glutamate in cell culture of U118MG cells of astrocytic origin (FIGS. 1, 2, 3 and 8) or SH SY 6Y cells of neuronal origin (FIG. 4). […] In the control group, 35 mM of glutamate killed ˜60% of the cells.
The experimental setup is explained using FIG. 8B as an example: • 1. Control: Cell death levels are taken as 0% • 2. Glu: Cell death levels induced by glutamate are over 50% • 3. […] Glu+Cpd 5: When Cpd 5 is given as a treatment to counteract cell death induced by glutamate, increasing concentrations of Cpd 5 reduce cell death levels from over 50% to less than 5%.

R6-2 mice [1] = test: Incidence of tremor in R6-2 mice; type: in vivo, mouse
Source text: (§2) Apart from the behavioral experiments, mice were observed daily, and the day of death was noted. Behavioral experiments included distance covered in an open field apparatus, and tremor measurements.
To assay incidence of tremor in R6-2 mice of the experiments for this invention, the StartleMonitor of Kinder Scientific (Poway, Calif.), with specific software to assay and present force pressure changes in newtons, was used.

R6-2 mice [2] = test: Lifespan of R6-2 mice, transgenic model for Huntington Disease; type: in vivo, mouse; conditions: for effect on lifespan: daily s.c. injections 5 days a week from week 5, vs DMSO and saline
Source text: For the assays described herein systemic injections of kainic in rats were applied and also contusion (Veenman et al. 2002; Soustiel et al. Neuropathol Appl Neurobiol. 2008; Soustiel et al. Exp Neurol. 2008). These models present very well defined cell death in the brain. Cell death in the brain is the major pathological characteristic of progressing neurodegeneration common to brain diseases. As the compounds of the present invention are designed to prevent cell death in the brain as a consequence of disease and progressing brain damage after injury, including behavioral impairments, animal models displaying cell death in the brain are the models of choice for displaying the protective capabilities of the compounds of the invention. For these reasons the R6-2 model for Huntington Disease was chosen to test the effectiveness of Compound 1 and to compare the effectiveness of Compound 1 with those of the compound of U.S. Pat. No. 8,541,428 (Cpd A) and with the classical TSPO ligand PK 11195, as well as other compounds disclosed herein. Compounds 5 and 6 were also tested in the same R6-2 model.
R6-2 is a transgenic mouse model for Huntington Disease. Huntington Disease in humans is a hereditary neurodegenerative disease affecting motor performance and finally leading to death of the patients having the disease. R6-2 mice (˜120 CAG repeats B6CBA-Tg(HDexon1)62 Gpb/3J) mice were used for the experiments described below. For this purpose, mice obtained from the Jackson Laboratory (ME) were bred. In particular: males genotype: Hemizygous for Tg(HDexon1)62 Gpb, and females from the wildtype background strain B6CBAF1/J were bred according to the protocol of Jackson Laboratory. The male heterozygote offspring (R6-2 mice) were used for determining life span and motor activity, with and without drug treatment. Drug treatment consisted of daily (5 continuous days a week) subcutaneous injections of mice with 20 μl of: saline (sham control), vehicle DMSO (vehicle control), classic TSPO ligand PK 11195 (15 mg/kg), prior art Compound A (15 mg/kg), Compound 1 (15 mg/kg), and compound 1 (7.5 mg/kg). Drug treatment started on week 5 after birth. Quantities were used according to previous studies regarding TSPO ligands.
as §2
R6-2 mice were used as previously described in Example 5. In one experiment, treatment consisted of daily (5 continuous days per week) subcutaneous injections of mice with 20 μl of vehicle DMSO (control, n=10) and Compound 6 (7.5 mg/kg, n=12). In a separate experiment, compound 5 (7.5 mg/kg, n=5) was tested, compared to DMSO control (n=5).

TSPO, sequence (P30536 whole entry): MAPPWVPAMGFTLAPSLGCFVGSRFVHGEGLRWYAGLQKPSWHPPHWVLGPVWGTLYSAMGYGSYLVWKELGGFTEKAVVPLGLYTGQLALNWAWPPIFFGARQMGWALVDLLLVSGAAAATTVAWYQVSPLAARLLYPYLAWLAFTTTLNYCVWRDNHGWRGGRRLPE

| Structure (SMILES) | Ki (TSPO) | protection against lethal effects of glutamate (SH SY 6Y cells) | Protection against glutamate-induced cell death (U118MG cells) | incidence of tremor activity (R6-2 mice [1]) | week until which 50% of the mice were still alive (R6-2 mice [2]; 7.5 mg/kg s.c., 50% of DMSO mice died before 10th week) | effect on lifespan (R6-2 mice [2]) | effect on lifespan (R6-2 mice [2]; listed as compound 6) | lethal effects of compound at high concentration (U118MG cells; halogenated vs unhalogenated analog) | lethal effects of compound at high concentration (U118MG cells; halogenated vs unhalogenated analog, listed as Cpd 6) | protection against cell death induced by glutamate (U118MG cells) | protection against cell death induced by glutamate (U118MG cells; listed as compound 6) | cell death effect of glutamate at high compound concentration (U118MG cells; glutamate plus 100 μM compound, halogenated vs unhalogenated analog) | cells killed by glutamate (U118MG cells; glutamate plus 100 μM compound, glutamate alone kills 50-60%) |
| --- | --- | --- | --- | --- | --- | --- | --- | --- | --- | --- | --- | --- | --- |
| CCN(CC)C(=O)Oc1nc(-c2ccc(Br)cc2)nc2ccccc12 [Compound 4, 2-(4-bromophenyl)quinazolin-4-yl diethylcarbamate] | ~0.045 µM | protects neuronal cells | Good | – | – | – | – | – | – | – | – | – | – |
| CCN(C)C(=O)Oc1nc(-c2ccccc2Cl)nc2ccccc12 [Compound 6, 2-(2-chlorophenyl)quinazolin-4-yl ethyl(methyl)carbamate] | ~0.06 µM | – | Excellent | tremor reducing effects; also recorded: reduced the incidence of tremor activity | 12 week | increase the average lifespan; also recorded: extends the life span | robust lifespan enhancing | reduces lethal effects | reduces cell death effects | protect better and more consistently; also recorded: improves protection | superior over compound 1 | reduces cell death effect of glutamate in cultures even further | 5% |
